Source: ChEMBL document CHEMBL6071130, “A comprehensive review of small molecule drugs approved by the FDA in 2023: Advances and prospects” (Eur J Med Chem, 2024)

How the values were obtained:
[1] = Half life in mouse; format: ADME, organism-based; conditions: in vivo
in vivo = conditions: mouse, po
Description: Oral bioavailability in mouse

Description for Gamma-secretase: Inhibition of Gamma-secretase (unknown origin)

| half-life [1] [h] | bioavailability (in vivo) [%] | IC50 (Gamma-secretase) [nM] | Compound |
| --- | --- | --- | --- |
| 7 | 60 |  | CCO[C@H]1CCN(Cc2c(OC)cc(C)c3[nH]ccc23)[C@H](c2ccc(C(=O)O)cc2)C1 [IPTACOPAN] |
|  |  | 20 | C[C@H](NC(=O)Cc1cc(F)cc(F)c1)C(=O)N[C@H](C(=O)OC(C)(C)C)c1ccccc1 |
